{"source": "ChEMBL document CHEMBL1773047", "about": "“Antiparasitic compounds from Cupania cinerea with activities against Plasmodium falciparum and Trypanosoma brucei rhodesiense” (J Nat Prod, 2011)", "key": {"L6": {"tested_on": "L6", "assay": "Cytotoxicity against rat L6 cells after 72 hrs by microplate fluorimetry", "type": "cell-based", "details": "L6, 72 h"}, "[1]": {"tested_on": "Trypanosoma brucei rhodesiense", "assay": "Antiparasitic activity against Trypanosoma brucei rhodesiense STIB 900 bloodstream form after 72 hrs by microplate fluorimetry", "type": "functional, organism-based", "details": "STIB 900, 72 h"}, "Plasmodium falciparum": {"tested_on": "Plasmodium falciparum", "assay": "Antiplasmodial activity against chloroquine- and pyrimethamine-resistant Plasmodium falciparum K1 infected in human red blood cells assessed as [3H]hypoxanthine incorporation after 48 hrs by liquid scintillation counting", "type": "functional, organism-based"}}, "data": [{"smiles": "CC(=O)O[C@@H]1[C@@H](OC(C)=O)[C@H](C)O[C@@H](O[C@H]2[C@H](OC/C=C(\\C)CC/C=C(\\C)CC/C=C(\\C)CCC=C(C)C)O[C@H](CO)[C@@H](O)[C@@H]2O)[C@@H]1OC(C)=O", "values": [{"measurement": "IC50", "setting": "L6", "value": 8.7, "unit": "µM"}, {"measurement": "IC50", "setting": "[1]", "value": 15.8, "unit": "µM"}, {"measurement": "IC50", "setting": "Plasmodium falciparum", "value": 2.1, "unit": "µM"}]}, {"smiles": "CC(C)=CCCC(C)C1CC=C(C)C(O)C1O", "note": "(configuration not stated)", "values": [{"measurement": "IC50", "setting": "L6", "value": "> 90", "unit": "µM"}, {"measurement": "IC50", "setting": "[1]", "value": 38.2, "unit": "µM"}, {"measurement": "IC50", "setting": "Plasmodium falciparum", "value": "> 20", "unit": "µM"}]}, {"smiles": "CC(C)=CCC[C@H](C)[C@@H]1C=C[C@](C)(O)[C@@H](O)C1", "values": [{"measurement": "IC50", "setting": "L6", "value": "> 90", "unit": "µM"}, {"measurement": "IC50", "setting": "[1]", "value": 61.3, "unit": "µM"}, {"measurement": "IC50", "setting": "Plasmodium falciparum", "value": "> 20", "unit": "µM"}]}, {"smiles": "CC(C)[C@@]12CC[C@]3(C)[C@H]4CC[C@@H]5[C@@]6(C)CCC(=O)C(C)(C)[C@@H]6CC[C@@]5(C)[C@]4(C)CC[C@@]13O2", "values": [{"measurement": "IC50", "setting": "L6", "value": "> 90", "unit": "µM"}, {"measurement": "IC50", "setting": "[1]", "value": "> 90", "unit": "µM"}, {"measurement": "IC50", "setting": "Plasmodium falciparum", "value": "> 10", "unit": "µM"}]}, {"smiles": "C=C1CC[C@@H]2O[C@]2(C)CC[C@@H]2[C@@H]1CC2(C)C", "values": [{"measurement": "IC50", "setting": "L6", "value": "> 90", "unit": "µM"}, {"measurement": "IC50", "setting": "[1]", "value": "> 90", "unit": "µM"}, {"measurement": "IC50", "setting": "Plasmodium falciparum", "value": "> 25", "unit": "µM"}]}, {"smiles": "C=C(C)[C@@H]1CC[C@]2(CO)CC[C@]3(C)[C@H](CC[C@@H]4[C@@]5(C)CCC(=O)C(C)(C)[C@@H]5CC[C@]43C)[C@@H]12", "note": "[BETULONE]", "values": [{"measurement": "IC50", "setting": "L6", "value": 22.2, "unit": "µM"}, {"measurement": "IC50", "setting": "[1]", "value": 18.9, "unit": "µM"}, {"measurement": "IC50", "setting": "Plasmodium falciparum", "value": 3, "unit": "µM"}]}, {"smiles": "CC(=O)OC[C@H]1O[C@@H](OC/C=C(\\C)CC/C=C(\\C)CC/C=C(\\C)CCC=C(C)C)[C@H](O[C@@H]2O[C@@H](C)[C@H](OC(C)=O)[C@@H](OC(C)=O)[C@H]2OC(C)=O)[C@@H](O)[C@@H]1O", "note": "[CUPACINOSIDE]", "values": [{"measurement": "IC50", "setting": "L6", "value": 11.6, "unit": "µM"}, {"measurement": "IC50", "setting": "[1]", "value": 4.6, "unit": "µM"}, {"measurement": "IC50", "setting": "Plasmodium falciparum", "value": 1.3, "unit": "µM"}]}, {"smiles": "CC1(C)OC(=O)CC[C@]2(C)[C@H]3CC[C@H]4[C@@](C)(CC[C@@]5(C)C(C)(C)CCC[C@]45C)O[C@]3(C)CC[C@@H]12", "note": "[CUPACINOXEPIN]", "values": [{"measurement": "IC50", "setting": "L6", "value": "> 90", "unit": "µM"}, {"measurement": "IC50", "setting": "[1]", "value": 71.6, "unit": "µM"}, {"measurement": "IC50", "setting": "Plasmodium falciparum", "value": 8.7, "unit": "µM"}]}, {"smiles": "CCCCCC(=O)Cc1cc(OC)cc(O)c1C(=O)Oc1cc(CC(=O)CCCCC)c(C(=O)OC)c(OC)c1", "note": "[GUSTASTATIN]", "values": [{"measurement": "IC50", "setting": "L6", "value": "> 90", "unit": "µM"}, {"measurement": "IC50", "setting": "[1]", "value": 19.4, "unit": "µM"}, {"measurement": "IC50", "setting": "Plasmodium falciparum", "value": "> 9", "unit": "µM"}]}, {"smiles": "COc1cc(C)c2c(=O)c3c(O)cc(OC)cc3oc2c1", "note": "[LICHEXANTHONE]", "values": [{"measurement": "IC50", "setting": "L6", "value": 52.1, "unit": "µM"}, {"measurement": "IC50", "setting": "[1]", "value": "> 90", "unit": "µM"}, {"measurement": "IC50", "setting": "Plasmodium falciparum", "value": "> 20", "unit": "µM"}]}, {"smiles": "C=C(C)[C@@H]1CC[C@]2(C)CC[C@]3(C)[C@H](CC[C@@H]4[C@@]5(C)CCC(=O)C(C)(C)[C@@H]5CC[C@]43C)[C@@H]12", "note": "[LUPENONE]", "values": [{"measurement": "IC50", "setting": "L6", "value": "> 90", "unit": "µM"}, {"measurement": "IC50", "setting": "[1]", "value": "> 90", "unit": "µM"}, {"measurement": "IC50", "setting": "Plasmodium falciparum", "value": 4.7, "unit": "µM"}]}, {"smiles": "COc1cc2ccc(=O)oc2cc1O", "note": "[SCOPOLETIN]", "values": [{"measurement": "IC50", "setting": "L6", "value": "> 90", "unit": "µM"}, {"measurement": "IC50", "setting": "[1]", "value": "> 90", "unit": "µM"}, {"measurement": "IC50", "setting": "Plasmodium falciparum", "value": "> 25", "unit": "µM"}]}, {"smiles": "CC1(C)CC[C@]2(C)CC=C3[C@]4(C)CC[C@H]5C(C)(C)[C@@H](O)CC[C@]5(C)[C@H]4CC[C@@]3(C)[C@@H]2C1", "note": "[TARAXEROL]", "values": [{"measurement": "IC50", "setting": "L6", "value": "> 90", "unit": "µM"}, {"measurement": "IC50", "setting": "[1]", "value": 10.5, "unit": "µM"}, {"measurement": "IC50", "setting": "Plasmodium falciparum", "value": 8.5, "unit": "µM"}]}, {"smiles": "CC1(C)CC[C@]2(C)CC=C3[C@]4(C)CC[C@H]5C(C)(C)C(=O)CC[C@]5(C)[C@H]4CC[C@@]3(C)[C@@H]2C1", "note": "[TARAXERONE]", "values": [{"measurement": "IC50", "setting": "L6", "value": "> 90", "unit": "µM"}, {"measurement": "IC50", "setting": "[1]", "value": "> 90", "unit": "µM"}, {"measurement": "IC50", "setting": "Plasmodium falciparum", "value": "> 10", "unit": "µM"}]}]}
